# Measured values: patent US10328116B2, “Combinations of proteasome inhibitors and cyclic peptides” (BIG DNA LTD, priority 2014, dated 2019)
# Read-outs that look alike come from different tables or passages of the source.
# Experiments:
# [1] = target: chymotrypsin-like sites (Homo sapiens, UniProt P28074); conditions: cited from earlier work
# [2] = test system: Cos7 cells; assay: Sulforhodamine B relative cell growth assay in Cos7 cells (Example 2); format: cell-based; conditions: COS-7 (αvβ3 −ve); 10 μM proteasome inhibitor, absence of cRGDfK
# [3] = test system: chymotrypsin-like activity of the proteasome; conditions: highest dose used in the phase I trial; cited from earlier work
# [4] = phase II trials; heavily pretreated patient population; cited from earlier work
# [5] = test system: HEK293 cells; assay: Sulforhodamine B relative cell growth assay in HEK293 cells (Examples 1-3); format: cell-based; conditions: HEK293 (αvβ3 +ve); 10 μM proteasome inhibitor, absence of cRGDfK
# Protocol: Established methodology was used to prepare 80-100% confluent monolayers of HEK293 cells in T75 flasks. Cells were cultured in DMEM (Lonza) supplemented with 10% FBS (Gibco), 2 mM L-glutamine, 100 U/mL penicillin and 100 μg/mL streptomycin (“complete DMEM”).
# The cells in T75 flasks were trypsinised and resuspended in complete DMEM. The cells were counted using a Neubauer chamber and seeded at approximate density of 3×10^4 cells/cm^2 and 7500 cells/cm^2 in 96 well flat bottomed tissue culture plates (Corning) 0.1 mL cell suspension per well. Cells were incubated for 24 hours at 37° C./5% CO2 (humidified).
# To provide a working stock, BTZ was diluted to 10 mM in DMSO. […]
# Briefly: medium was removed from wells and replaced with an equal volume of PBS. […] Optical density (OD570nm) was determined using an ELISA plate reader (Dynex MRX, Dynex Technologies).
# In total, 5 replicates of the experiment were carried out. Cells treated with peptide/BTZ mixtures or control mixtures were incubated for 24 hours at 37° C./5% CO2 (humidified) then analysed by sulforhodamine B assay.
# The average of the background measurements (i.e. no cells, medium only) was subtracted from each reading. ‘Ti’ is OD570nm following 24 hours treatment with drugs. […]
# Using these equations, control cell growth is assigned a relative cell growth value of 100% and all cell growth values are calculated relative to this figure. […]
# [6] = test system: NCI H-929 Multiple Myeloma Cell Line; assay: NCI H-929 sub-cutaneous xenograft, varied BTZ dose, TGI and TTE (Example 8); format: in vivo, mouse; conditions: endpoint day 18
# Protocol: Cilengitide or vehicle was supplied as daily intra-peritoneal injection (45 mg/kg). […] After this point, dosing was continued in groups receiving 0.2 mg/kg and 0.5 mg/kg BTZ±cilengitide until day 31 to allow comparative tumour growth delay (i.e. difference in time to endpoint (TTE). […] TTE was calculated as TTE=[log(endpoint volume)-b]/m where TTE is expressed in days, endpoint volume is expressed in mm^3, b is the intercept, and m is the slope of the line obtained by linear regression of a log-transformed tumour growth data set. TTE values were plotted in Kaplan-Meier diagrams (FIGS. 9 and 10).
# [7] = test system: WSU-DLCL2 lymphoma xenograft; conditions: at MTD; cited from earlier work
# [8] = test system: NCI H-929 human multiple myeloma cells; assay: NCI-H929 sub-cutaneous xenograft mouse tumor model, 'high' bortezomib dose (Example 7); format: in vivo; conditions: for Complete response (mice) / No response (mice) / Partial response (mice) / Total RR % (PR+CR): bortezomib 1 mg/kg IV biweekly, cilengitide 45 mg/kg IP QD, N = 10 mice per group
# Source text: This was then continued until Day 21.
# Partial response (PR) is defined as the first measurement of the tumor volume being 50% or less of its Day 1 volume for three consecutive measurements during the course of the study, and equal to or greater than 13.5 mm^3 for one or more of these three measurements. In a complete response (CR), the tumor volume was less than 13.5 mm^3 for three consecutive measurements during the course of the study. Total response rate (RR) is the sum of PR+CR. Treatment began on day 1 and was stopped on Day 21.
# [9] = test system: CWR22 human prostate cancer xenografts; conditions: cited from earlier work
# [10] = target: 20S proteasome (Homo sapiens, UniProt P20618+P28074); conditions: cited from earlier work
# [11] = test system: Oci-Ly7-Luc; conditions: disseminated lymphoma; cited from earlier work
# [12] = test system: PHTX22L xenografts; conditions: MTD level treatment; cited from earlier work
# [13] = test system: DP54-Luc model; conditions: in vivo; cited from earlier work
# [14] = test system: T47D breast cancer cell line; assay: Sulforhodamine B viability, isobologram and combination index in T47D cells (Examples 4-5); format: cell-based; conditions: single agent at its IC50
# Protocol: For assessment of combined BTZ and cilengitide toxicity, T47D cells were seeded at a density of 7500 cells/cm^2 in 96-well cell culture plates and incubated for 24 hours. Cilengitide was diluted to 20 μM in complete DMEM, then 3 serial tenfold dilutions of this were performed in complete DMEM (2 μM, 200 nM and 20 nM). Complete DMEM containing no cilengitide was provided for negative controls.
# These dilutions (or DMSO for wells containing no BTZ) were added to aliquots of complete DMEM containing 0-20 μM cilengitide for a 1/150 dilution. Aliquots (0.1 mL) of each mixture were added to wells already containing 0.1 mL medium (in duplicate), resulting in a matrix of cilengitide (10 nM-10 μM) and/or BTZ (1 nM-10 μM) or neither agent (diluent only).
# OD570nm readings were divided by those resulting from negative control (diluent only) wells and expressed as a percentage. Three independent replicates of this experiment were carried out.
# The isoboles were obtained similarly by extrapolation of points representing 50% reduction in viability from line graphs of % viability versus concentration of one agent at variable concentration with the other agent supplied at a fixed concentration. […]
# [15] = at maximum tolerated dose (MTD)
# chymotrypsin-like sites, sequence (P28074 60-263): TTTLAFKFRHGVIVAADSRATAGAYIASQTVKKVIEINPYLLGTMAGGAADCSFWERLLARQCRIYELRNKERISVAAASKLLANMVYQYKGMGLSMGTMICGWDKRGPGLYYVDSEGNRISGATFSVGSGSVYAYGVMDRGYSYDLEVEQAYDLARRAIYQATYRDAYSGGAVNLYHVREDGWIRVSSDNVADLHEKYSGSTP
smiles,measurement,setting,value
C[C@@]12OC(=O)[C@]1([C@@H](O)[C@@H]1C=CCCC1)NC(=O)[C@@H]2CCCl [Marizomib],inhibition of the chymotrypsin-like sites,[1],up to 100%
CC(C)C[C@H](NC(=O)[C@H](CCc1ccccc1)NC(=O)CN1CCOCC1)C(=O)N[C@@H](Cc1ccccc1)C(=O)N[C@@H](CC(C)C)C(=O)[C@@]1(C)CO1 [Carfilzomib],cell growth relative to untreated control cells,[2],"greater activity than ixazomib, delanzomib and oprozomib"
same,inhibition of the chymotrypsin-like activity of the proteasome in blood of patients,[3],88%
same,partial response rate,[4],24%
same,cell growth relative to untreated control cells,[5],"greater activity than ixazomib, delanzomib and oprozomib"
CC(C)C[C@H](NC(=O)[C@H](Cc1ccccc1)NC(=O)c1cnccn1)B(O)O [Bortezomib],Tumour growth inhibition (TGI),"[6]; 0.5 mg/kg BTZ and below, without cilengitide",virtually ineffective
same,Tumour growth inhibition (TGI),"[6]; BTZ doses of 0.7 mg/kg and greater, biweekly i.v.",almost complete TGI
same,anti-tumoral activity,[7],ineffective
same,animals that relapsed (complete relapse),"[8]; By Day 42, of 10 animals per group",3
same,anti-tumoral activity,[9]; [15],effective anti-tumoral activity
same,proteasome dissociation half-life,[10],approximately 110 minutes
"CC(C)C[C@H](NC(=O)CNC(=O)c1cc(Cl)ccc1Cl)B(O)O [Ixazomib, [(1R)-1-[[2-[(2,5-dichlorobenzoyl)amino]acetyl]amino]-3-methyl-butyl]boronic acid]",antitumoral effect,[11],improved antitumoral effect compared with bortezomib
same,anti-tumoral effect,[12],only ixazomib was found to exhibit an anti-tumoral effect
same,alleviation of osteolytic bone disease,[13],effective in the alleviation of osteolytic bone disease
same,anti-tumoral activity,[7],significant anti-tumoral activity
same,anti-tumoral activity,[9]; at half the MTD,more effective than bortezomib
same,anti-tumoral activity,[9]; [15],effective anti-tumoral activity
same,proteasome dissociation half-life,[10],approximately 18 minutes
same,release from the proteasome relative to bortezomib,[10]; faster than bortezomib,approximately 6 fold
CC(C)[C@H]1C(=O)N[C@@H](CCCN=C(N)N)C(=O)NCC(=O)N[C@@H](CC(=O)O)C(=O)N[C@H](Cc2ccccc2)C(=O)N1C [Cilengitide],CI (combination index),[14],1.00
same,Complete response (mice),[8]; Day 1,0
same,No response (mice),[8]; Day 1,10
same,Partial response (mice),[8]; Day 1,0
same,Total RR % (PR+CR),[8]; Day 1,0%
same,Complete response (mice),[8]; Day 4,0
same,No response (mice),[8]; Day 4,10
same,Partial response (mice),[8]; Day 4,0
same,Total RR % (PR+CR),[8]; Day 4,0%
same,Complete response (mice),[8]; Day 8,0
same,No response (mice),[8]; Day 8,10
same,Partial response (mice),[8]; Day 8,0
same,Total RR % (PR+CR),[8]; Day 8,0%
same,Complete response (mice),[8]; Day 12,0
same,No response (mice),[8]; Day 12,10
same,Partial response (mice),[8]; Day 12,0
same,Total RR % (PR+CR),[8]; Day 12,0%
same,Complete response (mice),[8]; Day 15,0
same,No response (mice),[8]; Day 15,10
same,Partial response (mice),[8]; Day 15,0
same,Total RR % (PR+CR),[8]; Day 15,0%
same,Complete response (mice),[8]; Day 18,0
same,No response (mice),[8]; Day 18,10
same,Partial response (mice),[8]; Day 18,0
same,Total RR % (PR+CR),[8]; Day 18,0%
same,Complete response (mice),[8]; Day 21,0
same,No response (mice),[8]; Day 21,10
same,Partial response (mice),[8]; Day 21,0
same,Total RR % (PR+CR),[8]; Day 21,0%
